Activity calls are given as the source filed them.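 How the source made its calls: active means fitted EC50 no more than tenfold above the highest tested concentration; inconclusive means flat fit with 30 to 70% signal loss, or poor fit; inactive means the rest.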
System: Candida albicans CaCi-2 growth (no fluconazole), Alamar Blue
Assay: C. albicans growth inhibition without fluconazole, dose response, counter-screen for fluconazole resistance reversal project, CaCi-2 strain, Alamar Blue fluorescence (AID 2387)
Conditions: C. albicans CaCi-2 (fluconazole-resistant clinical isolate) growth without fluconazole, 48 h

| Compound | EC50 |
| --- | --- |
| Cc1c(OCC(=O)NCC(O)c2ccccc2)ccc2c(-c3ccccc3)cc(=O)oc12 (stereo not drawn) | > 16 µM (inactive) |
| C[C@@H]1CC[C@@]2(NC1)O[C@H]1C[C@H]3[C@@H]4CC=C5C[C@@H](O)CC[C@]5(C)[C@H]4CC[C@]3(C)[C@H]1[C@@H]2C | > 16 µM (inactive) |
| Cc1cc(=O)oc2cc(Oc3ccc([N+](=O)[O-])cc3[N+](=O)[O-])ccc12 | > 16 µM (inactive) |
| CCc1nnc(NC(=O)CSc2ncc(-c3ccccc3)n2C)s1 | > 15 µM (inactive) |
| CNC(=O)Nc1cc(C(F)(F)F)cc(C(F)(F)F)c1 | > 15 µM (inactive) |
| Cc1cc(C)c(-c2cc(NC(=O)COC(=O)c3ccc(C#N)cc3)n(-c3ccccc3)n2)cc1C | > 16 µM (inactive) |
| O=C(Cc1nc2ccccc2s1)c1ccc(O)cc1O | > 16 µM (inactive) |
| CCCCCCOC(=O)C[N+](C)(C)CCOC1CC2CCC1(C)C2(C)C (stereo not drawn) | > 16 µM (inactive) |
| CC(=O)c1sc(NC(=O)CCS(=O)(=O)c2ccccc2)nc1C | > 15 µM (inactive) |
| CN1CCN(C(c2ccc(C(F)(F)F)cc2)c2ccc3cccnc3c2O)CC1 (stereo not drawn) | 8.31 µM |
| Cc1nn(-c2ccccc2)c(C)c1C(=O)OC/C(O)=C(\C#N)c1nc2ccccc2[nH]1 | > 15 µM (inactive) |
| O=C(NCc1ccccc1)c1sc(=S)n2c1[nH]c(=O)c1ccccc12 | > 15 µM (inactive) |
| Cc1c(Cl)ccc2c1NC(=O)[C@]21N[C@@H](Cc2ccccc2)[C@H]2C(=O)N(c3ccc(F)cc3)C(=O)[C@H]21 | > 16 µM (inactive) |
| COc1ccc(-c2nnc(NC(=O)c3ccc(S(=O)(=O)N4CCCc5ccccc54)cc3)o2)cc1 | 13.3 µM |
| O=C(CC(=O)c1cccc([N+](=O)[O-])c1)Nc1ccccc1Cl | > 16 µM (inactive) |
| O=C(Oc1c(Cl)cc(Cl)c2cccnc12)c1cccs1 | 1.41 µM |
| CCC(=O)NC(c1cccs1)c1cc([N+](=O)[O-])c2cccnc2c1O (stereo not drawn) | > 15 µM (inactive) |
| CCCCCCCNC(=O)COc1ccc2c(c1)C(=O)CC(C)(C)O2 | > 16 µM (inactive) |
| CCCCC(=O)NC(c1ccc(N(CC)CC)cc1)c1ccc2cccnc2c1O (stereo not drawn) | 8.6 µM |
| COc1ccc(-n2nc(C(=O)NCC(=O)NCCC3=CCCCC3)c3ccccc3c2=O)c(OC)c1 | > 15 µM (inactive) |
| CC(=O)N(O)CCCCCNC(=O)CCC(=O)N(O)CCCCCNC(=O)CCC(=O)N(O)CCCCCN | > 15 µM (inactive) |
| CCOc1ccccc1NC(=O)C(=O)N/N=C/c1cc(Br)ccc1O | > 16 µM (inactive) |
| O=C1/C(=C/c2cccnc2)CCc2c1[nH]c1ccccc21 | > 15 µM (inactive) |
| Cc1cc(C(=O)N/N=C/c2cc(Cl)cc([N+](=O)[O-])c2O)c2ccccc2n1 | > 15 µM (inactive) |
| Cc1cc(C)cc(OCC(=O)NNC(=S)NC(=O)C2CC2)c1 | > 15 µM (inactive) |

| Compound | EC50 |
| --- | --- |
| O=C(N/N=C/c1cc([N+](=O)[O-])ccc1O)c1ccc(COc2ccc3c(c2)CCC3)o1 | 12.3 µM |
| CCCCCCC[n+]1ccc(-c2cc[n+](CCCCCCC)cc2)cc1 | 1.68 µM |
| O=C(NNC1=C(C(=O)C(F)(F)F)CCC1)c1ccc(Cl)cc1 | > 15 µM (inactive) |
| O=C(c1cc2ccccc2cc1O)N1CCN(c2ccccc2O)CC1 | > 15 µM (inactive) |
| CCN(CC)c1ccc(/C=N/NC(=O)c2cccc(S(=O)(=O)N3CCOCC3)c2)c(O)c1 | > 16 µM (inactive) |
| O=C(NNC1=C(C(=O)C(F)(F)F)CCC1)c1cccc(Cl)c1 | > 16 µM (inactive) |
| CCCC(=O)NC(c1ccc(C)cc1)c1ccc2cccnc2c1O (stereo not drawn) | > 15 µM (inactive) |
| CCCCCCSc1nnc2[nH]c(=O)cc(N)n12 | > 15 µM (inactive) |
| N#Cc1cc(C#N)c(N2CCN(c3cccc(Cl)n3)CC2)nc1N | > 15 µM (inactive) |
| COc1ccc(-n2c(=O)c3c4c(sc3n3c(=S)[nH]nc23)CCCC4)cc1 | > 16 µM (inactive) |
| CCc1ccccc1NC(=S)N=Nc1c(O)n(C)c2ccc(S(=O)(=O)N3CCOCC3)cc12 | > 15 µM (inactive) |
| [O-][n+]1cccc2c(Br)cc(Br)c(O)c21 | 16.4 µM |
| COc1ccc(-c2nnc(NC(=O)c3cc(Cl)ccc3Cl)o2)cc1 | > 15 µM (inactive) |
| COc1ccc(Cl)cc1C(Nc1cccnc1)c1ccc2cccnc2c1O (stereo not drawn) | 11.8 µM |
| Cc1ccc(C(=O)c2coc3c2C(=O)C(=O)c2ccccc2-3)cc1 | 10.7 µM |
| Oc1ccc(N=Nc2ccc3c(c2)OCCO3)c2cccnc12 | 3.65 µM |
| C=CCOC(=O)c1sc(NC(=O)c2ccco2)nc1C | > 15 µM (inactive) |
| COc1ccc(-n2nc(C(=O)NCC(=O)N3CCN(c4ccc(F)cc4)CC3)c3ccccc3c2=O)c(OC)c1 | > 15 µM (inactive) |
| Cc1c(Cl)c([N+](=O)[O-])nn1Cc1ccc(C(=O)N/N=C\c2cc(Cl)ccc2O)o1 | > 16 µM (inactive) |
| CC(C)COCc1ccc(O)c2ncccc12 | 16.1 µM |
| COc1cccc(-c2nc(NC(C)C)c3ccccc3n2)c1O | > 16 µM (inactive) |
| COc1ccc(/C=C/c2cc(-c3ccc(C)cc3)o[n+]2C)cc1 | > 16 µM (inactive) |
| CC(Nc1ncnc2ccccc12)c1ccccc1 (stereo not drawn) | > 16 µM (inactive) |
| CCc1nnc(NC(=O)CN2CCN(c3nc(-c4ccccc4)cs3)CC2)s1 | > 15 µM (inactive) |
| CN(C)c1cc(N/N=C/c2ccc(Cl)cc2)nc(N(C)C)n1 | > 16 µM (inactive) |

| Compound | EC50 |
| --- | --- |
| CN(C)S(=O)(=O)Oc1cccc(C(=O)Nc2cccc(Cl)c2)c1 | > 15 µM (inactive) |
| Cc1ccc(-n2c(O)c(C=Nc3ccccc3-c3n[nH]c(=S)[nH]c3=O)c3ccccc3c2=O)cc1C | > 16 µM (inactive) |
| O=C(Nc1nnc(-c2ccc3c(c2)CCCC3)o1)c1ccccc1 | 9.67 µM |
| O=[N+]([O-])c1cccc(-c2cc(-c3cc(Br)ccc3O)[nH]n2)c1 | > 15 µM (inactive) |
| CCc1cc(=S)n2c([nH]c3ccccc32)c1C#N | > 15 µM (inactive) |
| Cc1cc(Br)ccc1OCC(=O)NNC(=O)C(=O)Nc1ccccc1 | > 15 µM (inactive) |
| COc1ccc(OC)c(/C=C2\SC(=S)N(NS(=O)(=O)c3ccc(C)cc3)C2=O)c1 | > 15 µM (inactive) |
| COc1ccc(N(CC(=O)Nc2ccccc2C(N)=O)S(=O)(=O)c2ccc(C)c([N+](=O)[O-])c2)cc1 | > 16 µM (inactive) |
| Oc1c(C(Nc2nc3ccccc3s2)c2ccco2)ccc2cccnc12 (stereo not drawn) | 4.68 µM |
| COc1cccc(/C=N/NC(=O)C(=O)Nc2ccccc2OC(F)(F)C(F)F)c1O | > 16 µM (inactive) |
| O=[N+]([O-])c1nn(-c2ccc(Cl)cc2)n(O)c1=NCc1cccnc1 | > 15 µM (inactive) |
| CS/C(=N\S(=O)(=O)c1cccs1)Nc1ccc(Br)cc1F | > 15 µM (inactive) |
| COc1ccc(-n2nc(C(=O)NCC(=O)N3CCN(c4ccccc4)CC3)c3ccccc3c2=O)c(OC)c1 | > 16 µM (inactive) |
| O=C(NNC(=S)Nc1ccc(Cl)c(Cl)c1)c1ccccn1 | 11.3 µM |
| Cc1nn(-c2ccccc2)c(Cl)c1/C=C/C(=O)c1ccc(O)cc1 | > 16 µM (inactive) |
| COc1ccc(C)cc1N=Nc1ccc(O)c2ncccc12 | 2.77 µM |
| N#C/C(=C\c1ccc(N2CCOCC2)cc1)c1ccccc1 | > 16 µM (inactive) |
| O=C1NC(=O)/C(=C\c2ccc(Br)o2)S1 | > 15 µM (inactive) |
| Cc1ccc(NC(=O)CNC(=O)c2ccc(Oc3ccccc3)cc2)nc1 | > 15 µM (inactive) |
| O=c1ccc(N=Nc2ccccc2)ccc1O | 3.88 µM |
| CCCCC(=O)NC(c1ccco1)c1cc(Cl)c2cccnc2c1O (stereo not drawn) | 10.5 µM |
| Oc1c(C(c2ccccc2Cl)N2CCCC2)ccc2cccnc12 (stereo not drawn) | 14.3 µM |
| Oc1c(CN2CCc3ccccc3C2)cc(Cl)c2cccnc12 | 4.84 µM |
| Cc1nnc(NC(=O)CSc2ncnc3c2cnn3-c2ccccc2C)s1 | > 15 µM (inactive) |
| CC/C(=N/NC(=O)c1ccccc1O)c1c(C)[nH]n(-c2ccccc2)c1=O | > 15 µM (inactive) |

| Compound | EC50 |
| --- | --- |
| COc1ccccc1NC1=C(N2CCCCC2)C(=O)c2ccccc2C1=O | > 16 µM (inactive) |
| CC1(C)COCN1S(=O)(=O)c1ccc(C(=O)Nc2nnc(-c3ccc(Cl)s3)o2)cc1 | > 16 µM (inactive) |
| Cc1ccc(NC(=O)c2sc3nc(N)c(C#N)cc3c2N)cc1 | > 15 µM (inactive) |
| CCN(CC)S(=O)(=O)c1ccc(N/N=C/c2ccc(O)cc2O)nc1 | > 16 µM (inactive) |
| Cc1cc(O)ccc1NC(=S)NC(=O)c1cncc(Br)c1 | > 16 µM (inactive) |
| O=C(c1ccc(Cn2c(=O)[nH]c3ccccc3c2=O)cc1)N1CCN(c2ccc(F)cc2)CC1 | > 15 µM (inactive) |
| O=C(c1ccc(Cn2c(=S)[nH]c3ccccc3c2=O)cc1)N1CCN(c2ccccn2)CC1 | > 15 µM (inactive) |
| CCN1/C(=C/C(C)=C/c2sc3ccccc3[n+]2CC)Sc2ccccc21 | 2.38 µM |
| Cn1c(N2CCOCC2)c(/C=N/OC(=O)c2ccc(F)cc2)c2ccccc21 | > 16 µM (inactive) |
| Oc1ccc2ccccc2c1/C=N/Nc1nnc(-c2ncc[nH]2)c2ccccc12 | > 15 µM (inactive) |
| Cc1ccccc1/C=C1\SC(=S)N(/N=C/c2cc([N+](=O)[O-])ccc2O)C1=O | > 16 µM (inactive) |
| COc1ccc(C(NC(=O)C(C)C)c2ccc3cccnc3c2O)cc1 (stereo not drawn) | > 15 µM (inactive) |
| Cc1nc2ccccc2cc1OCc1ccc(F)cc1 | > 16 µM (inactive) |
| CCN(CC)S(=O)(=O)c1cc(OC)ccc1N=Nc1ccc(O)c2ncccc12 | 6.91 µM |
| CCN(Cc1ccccc1)S(=O)(=O)c1ccc(C(=O)Nc2nnc(-c3ccccc3OC)o2)cc1 | > 15 µM (inactive) |
| O=C(Nc1sc2c(c1C(=O)c1ccc(Cl)cc1)CCCC2)c1cccnc1 | > 15 µM (inactive) |
| O=C(NCc1ccco1)c1sc(=S)n2c1[nH]c(=O)c1ccccc12 | > 16 µM (inactive) |
| C(C#CCCCCCCCCC[n+]1ccccc1)#CCCCCCCCCC[n+]1ccccc1 | 2.52 µM |
| Oc1c(Br)cc(Br)cc1/C=N/Nc1ccc(Cl)nn1 | > 16 µM (inactive) |
| CC[n+]1c(/C=C2\Sc3ccccc3N2C)ccc2cccc(C)c21 | 2.43 µM |
| CCCC(=O)NC(c1ccc(C(C)C)cc1)c1ccc2cccnc2c1O (stereo not drawn) | 11.1 µM |
| N/C(Cc1ccccc1)=N\OC(=O)c1cccc2ccccc12 | > 15 µM (inactive) |
| CC(C)N1CCc2c(sc(NC(=O)c3nc4ccccc4s3)c2C(N)=O)C1 | > 15 µM (inactive) |

From PubChem BioAssay AID2387 (Broad Institute, 2010)
